Legend:
Test in all cases: radiometric filter-binding kinase assay, Kinase HotSpot
Conditions in all cases: compound 0.5 µM; ATP 10 µM
[1] = molecular target: AURKA (human) (UniProt O14965)
[2] = molecular target: BLK (human) (UniProt P51451)
[3] = molecular target: BRSK1 (human) (UniProt Q8TDC3)
[4] = molecular target: CAMK2A (human) (UniProt Q9UQM7)
[5] = molecular target: CDK1 CCNB1 (human) (UniProt P06493+P14635)
[6] = molecular target: CDK2 CCNA2 (human) (UniProt P24941+P20248)
[7] = molecular target: CLK1 (human) (UniProt P49759)
CLK1 (human), sequence (P49759 whole entry, looked up): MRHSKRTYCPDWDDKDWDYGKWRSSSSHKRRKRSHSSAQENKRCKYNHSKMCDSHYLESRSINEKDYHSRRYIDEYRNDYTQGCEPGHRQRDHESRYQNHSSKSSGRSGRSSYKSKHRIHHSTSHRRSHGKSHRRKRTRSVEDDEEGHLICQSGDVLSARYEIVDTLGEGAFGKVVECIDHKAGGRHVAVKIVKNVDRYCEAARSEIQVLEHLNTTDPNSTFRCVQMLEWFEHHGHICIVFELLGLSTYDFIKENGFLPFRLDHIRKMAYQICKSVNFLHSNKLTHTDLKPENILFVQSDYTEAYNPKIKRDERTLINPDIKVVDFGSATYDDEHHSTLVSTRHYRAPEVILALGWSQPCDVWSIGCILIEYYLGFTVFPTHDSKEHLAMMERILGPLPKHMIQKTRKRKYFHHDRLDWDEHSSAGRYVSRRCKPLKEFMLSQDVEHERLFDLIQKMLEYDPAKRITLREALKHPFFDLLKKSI

[8] = molecular target: CSNK1D (human) (UniProt P48730)
[9] = molecular target: CSNK1G3 (human) (UniProt Q9Y6M4)
[10] = molecular target: DAPK3 (human) (UniProt O43293)
[11] = molecular target: DCLK2 (human) (UniProt Q8N568)
DCLK2 (human), sequence (Q8N568 whole entry, looked up): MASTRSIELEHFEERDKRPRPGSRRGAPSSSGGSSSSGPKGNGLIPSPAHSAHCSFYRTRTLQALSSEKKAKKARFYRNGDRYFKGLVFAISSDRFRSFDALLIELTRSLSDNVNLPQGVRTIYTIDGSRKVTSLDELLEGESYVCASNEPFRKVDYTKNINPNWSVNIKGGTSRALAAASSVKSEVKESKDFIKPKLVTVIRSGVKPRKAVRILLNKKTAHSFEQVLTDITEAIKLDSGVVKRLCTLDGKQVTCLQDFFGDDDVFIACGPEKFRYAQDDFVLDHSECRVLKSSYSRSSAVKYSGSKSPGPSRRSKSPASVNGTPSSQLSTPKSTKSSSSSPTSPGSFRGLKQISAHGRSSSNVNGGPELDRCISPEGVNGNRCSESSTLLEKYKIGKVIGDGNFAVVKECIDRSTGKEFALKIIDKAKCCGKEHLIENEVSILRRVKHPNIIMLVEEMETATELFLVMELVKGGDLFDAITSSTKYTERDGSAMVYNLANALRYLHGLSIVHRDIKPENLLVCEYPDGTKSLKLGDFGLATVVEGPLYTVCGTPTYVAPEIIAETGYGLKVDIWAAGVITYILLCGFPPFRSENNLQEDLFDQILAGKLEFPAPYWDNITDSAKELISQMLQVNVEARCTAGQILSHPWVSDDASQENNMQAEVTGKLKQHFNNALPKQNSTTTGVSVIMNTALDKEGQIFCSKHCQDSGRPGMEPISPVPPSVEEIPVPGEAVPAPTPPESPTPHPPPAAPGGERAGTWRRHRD

[12] = molecular target: FGFR1 (human) (UniProt P11362)
[13] = molecular target: FRK (human) (UniProt P42685)
[14] = molecular target: GRK5 (human) (UniProt P34947)
[15] = molecular target: INSR (human) (UniProt P06213)
INSR (human), sequence (P06213 whole entry, looked up): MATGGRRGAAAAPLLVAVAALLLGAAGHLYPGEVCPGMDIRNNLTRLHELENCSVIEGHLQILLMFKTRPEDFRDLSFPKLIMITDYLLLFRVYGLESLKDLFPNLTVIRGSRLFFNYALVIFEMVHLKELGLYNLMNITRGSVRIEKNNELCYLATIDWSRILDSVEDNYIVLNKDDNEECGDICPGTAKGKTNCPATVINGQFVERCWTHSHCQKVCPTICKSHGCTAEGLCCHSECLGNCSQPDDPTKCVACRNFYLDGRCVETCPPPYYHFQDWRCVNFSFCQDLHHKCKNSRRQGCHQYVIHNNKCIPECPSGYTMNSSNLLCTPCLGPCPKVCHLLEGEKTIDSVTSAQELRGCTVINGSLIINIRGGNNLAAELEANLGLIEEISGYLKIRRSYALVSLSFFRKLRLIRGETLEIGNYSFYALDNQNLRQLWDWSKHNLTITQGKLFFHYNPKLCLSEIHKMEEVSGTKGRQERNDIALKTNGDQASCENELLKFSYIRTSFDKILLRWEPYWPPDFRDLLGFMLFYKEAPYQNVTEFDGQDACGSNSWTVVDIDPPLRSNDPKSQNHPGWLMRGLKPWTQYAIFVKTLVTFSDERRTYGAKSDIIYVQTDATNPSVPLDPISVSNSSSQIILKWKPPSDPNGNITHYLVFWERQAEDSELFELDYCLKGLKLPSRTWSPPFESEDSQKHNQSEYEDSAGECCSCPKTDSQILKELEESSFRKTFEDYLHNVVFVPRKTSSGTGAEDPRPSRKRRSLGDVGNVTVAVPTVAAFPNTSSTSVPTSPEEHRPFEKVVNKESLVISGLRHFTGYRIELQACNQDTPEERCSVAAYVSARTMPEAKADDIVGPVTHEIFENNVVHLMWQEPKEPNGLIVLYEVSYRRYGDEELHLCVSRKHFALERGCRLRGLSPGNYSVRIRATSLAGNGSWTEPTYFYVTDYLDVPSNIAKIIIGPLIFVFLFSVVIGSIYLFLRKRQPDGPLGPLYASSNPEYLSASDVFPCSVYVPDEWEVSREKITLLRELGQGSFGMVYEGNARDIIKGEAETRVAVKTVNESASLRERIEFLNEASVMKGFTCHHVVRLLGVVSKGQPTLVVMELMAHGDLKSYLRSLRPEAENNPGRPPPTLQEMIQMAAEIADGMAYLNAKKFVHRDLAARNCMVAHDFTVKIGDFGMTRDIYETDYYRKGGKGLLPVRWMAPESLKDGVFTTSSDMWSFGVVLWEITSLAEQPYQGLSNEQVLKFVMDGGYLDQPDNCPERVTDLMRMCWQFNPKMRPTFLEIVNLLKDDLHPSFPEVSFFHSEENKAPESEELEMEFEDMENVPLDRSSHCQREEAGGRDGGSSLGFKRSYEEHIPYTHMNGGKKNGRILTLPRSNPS

[16] = molecular target: MAP2K1 (human) (UniProt Q02750)
[17] = molecular target: MAPK11 (human) (UniProt Q15759)
[18] = molecular target: MAPK9 (human) (UniProt P45984)
[19] = molecular target: MARK2 (human) (UniProt Q7KZI7)
MARK2 (human), sequence (Q7KZI7 whole entry, looked up): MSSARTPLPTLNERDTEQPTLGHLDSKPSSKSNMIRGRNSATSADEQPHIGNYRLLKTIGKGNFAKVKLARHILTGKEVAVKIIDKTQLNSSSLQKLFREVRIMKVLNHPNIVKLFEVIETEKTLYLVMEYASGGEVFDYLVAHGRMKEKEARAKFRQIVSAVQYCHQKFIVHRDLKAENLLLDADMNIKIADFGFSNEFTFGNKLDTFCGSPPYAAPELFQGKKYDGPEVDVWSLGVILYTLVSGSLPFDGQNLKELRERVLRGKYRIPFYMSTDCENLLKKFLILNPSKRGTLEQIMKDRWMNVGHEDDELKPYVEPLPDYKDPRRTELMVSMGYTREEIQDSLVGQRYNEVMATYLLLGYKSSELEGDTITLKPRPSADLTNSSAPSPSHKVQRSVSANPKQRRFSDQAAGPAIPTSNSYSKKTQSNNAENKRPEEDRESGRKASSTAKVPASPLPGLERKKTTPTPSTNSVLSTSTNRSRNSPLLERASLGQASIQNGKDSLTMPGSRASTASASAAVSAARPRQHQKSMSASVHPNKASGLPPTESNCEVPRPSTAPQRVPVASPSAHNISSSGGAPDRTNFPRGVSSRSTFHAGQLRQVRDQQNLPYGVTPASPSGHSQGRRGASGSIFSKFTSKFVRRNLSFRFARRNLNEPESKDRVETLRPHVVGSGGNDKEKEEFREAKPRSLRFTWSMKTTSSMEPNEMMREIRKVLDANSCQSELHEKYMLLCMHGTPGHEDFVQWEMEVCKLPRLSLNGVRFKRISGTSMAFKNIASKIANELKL

[20] = molecular target: MARK4 (human) (UniProt Q96L34)
[21] = molecular target: MUSK (human) (UniProt O15146)
[22] = molecular target: MYLK (human) (UniProt Q15746)
[23] = molecular target: NTRK1 (human) (UniProt P04629)
[24] = molecular target: PAK2 (human) (UniProt Q13177)
[25] = molecular target: PKN1 (human) (UniProt Q16512)
[26] = molecular target: PRKCZ (human) (UniProt Q05513)
PRKCZ (human), sequence (Q05513 whole entry, looked up): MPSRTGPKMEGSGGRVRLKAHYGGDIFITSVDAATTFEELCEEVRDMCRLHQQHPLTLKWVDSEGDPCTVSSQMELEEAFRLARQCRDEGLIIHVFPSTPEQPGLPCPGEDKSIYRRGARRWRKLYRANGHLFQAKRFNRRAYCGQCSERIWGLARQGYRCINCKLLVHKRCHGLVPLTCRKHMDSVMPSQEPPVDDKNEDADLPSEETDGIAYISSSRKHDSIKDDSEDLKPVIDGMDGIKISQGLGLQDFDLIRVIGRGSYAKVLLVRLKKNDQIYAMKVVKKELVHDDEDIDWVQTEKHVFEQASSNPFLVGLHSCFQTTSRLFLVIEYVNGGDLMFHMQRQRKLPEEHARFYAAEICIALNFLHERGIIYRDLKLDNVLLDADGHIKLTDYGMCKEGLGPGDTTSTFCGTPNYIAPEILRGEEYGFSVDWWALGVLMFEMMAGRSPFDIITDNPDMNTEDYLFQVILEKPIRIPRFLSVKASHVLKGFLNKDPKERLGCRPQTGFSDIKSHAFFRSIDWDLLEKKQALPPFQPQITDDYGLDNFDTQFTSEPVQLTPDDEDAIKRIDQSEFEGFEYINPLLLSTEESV

[27] = molecular target: PRKD3 (human) (UniProt O94806)
[28] = molecular target: RPS6KA1 KD1 KD2 (human) (UniProt Q15418)
[29] = molecular target: RPS6KA6 KD1 KD2 (human) (UniProt Q9UK32)
[30] = molecular target: RPS6KB1 (human) (UniProt P23443)
[31] = system: SGK1 (human), O00141 [S422D]
[32] = molecular target: SGK3 (human) (UniProt Q96BR1)
[33] = molecular target: SLK (human) (UniProt Q9H2G2)
[34] = molecular target: STK39 (human) (UniProt Q9UEW8)
[35] = molecular target: STK4 (human) (UniProt Q13043)
[36] = molecular target: TGFBR1 (human) (UniProt P36897)
[37] = molecular target: TGFBR2 (human) (UniProt P37173)
[38] = molecular target: TYK2 JH1 catalytic (human) (UniProt P29597)
[39] = molecular target: WEE1 (human) (UniProt P30291)
[40] = molecular target: WNK3 (human) (UniProt Q9BYP7)
[41] = molecular target: ZAP70 (human) (UniProt P43403)
[42] = molecular target: EPHB4 (human) (UniProt P54760)

CAMK2A (human), sequence (Q9UQM7 whole entry, looked up): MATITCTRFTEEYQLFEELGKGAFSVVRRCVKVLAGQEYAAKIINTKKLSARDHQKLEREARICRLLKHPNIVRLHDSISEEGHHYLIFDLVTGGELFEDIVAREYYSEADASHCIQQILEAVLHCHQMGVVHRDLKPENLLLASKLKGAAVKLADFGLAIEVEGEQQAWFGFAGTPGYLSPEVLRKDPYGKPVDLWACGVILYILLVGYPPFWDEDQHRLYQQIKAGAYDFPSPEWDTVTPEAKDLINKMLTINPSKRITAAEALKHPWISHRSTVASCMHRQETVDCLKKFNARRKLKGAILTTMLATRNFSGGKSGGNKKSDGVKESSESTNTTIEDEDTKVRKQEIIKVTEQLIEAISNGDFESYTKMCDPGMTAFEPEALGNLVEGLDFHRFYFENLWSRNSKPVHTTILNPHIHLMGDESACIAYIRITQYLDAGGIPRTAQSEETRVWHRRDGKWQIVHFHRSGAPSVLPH
CDK2 CCNA2 (human), sequence (P20248 whole entry, looked up, other chains not shown): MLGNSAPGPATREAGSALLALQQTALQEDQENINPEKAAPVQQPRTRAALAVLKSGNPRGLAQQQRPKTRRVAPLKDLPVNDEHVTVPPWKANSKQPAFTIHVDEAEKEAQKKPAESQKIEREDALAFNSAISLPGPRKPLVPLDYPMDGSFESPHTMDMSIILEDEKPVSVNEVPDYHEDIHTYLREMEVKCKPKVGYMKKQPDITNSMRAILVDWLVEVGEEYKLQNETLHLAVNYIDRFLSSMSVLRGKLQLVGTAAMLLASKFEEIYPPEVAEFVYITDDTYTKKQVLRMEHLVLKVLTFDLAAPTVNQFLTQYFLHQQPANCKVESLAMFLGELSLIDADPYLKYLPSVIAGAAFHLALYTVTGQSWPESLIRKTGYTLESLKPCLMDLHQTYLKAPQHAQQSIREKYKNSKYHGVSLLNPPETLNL

## O=C(c1ccccc1)c1ccc(N2CCOCC2)cc1O
[1]
  residual activity: 108%
[2]
  residual activity: 102%
[3]
  residual activity: 103%
[4]
  residual activity: 105%
[5]
  residual activity: 92.3%
[6]
  residual activity: 99.3%
[7]
  residual activity: 108%
[8]
  residual activity: 100%
[9]
  residual activity: 98.8%
[10]
  residual activity: 100%
[11]
  residual activity: 103%
[12]
  residual activity: 95.9%
[13]
  residual activity: 102%
[14]
  residual activity: 105%
[15]
  residual activity: 92.9%
[16]
  residual activity: 98.1%
[17]
  residual activity: 99.3%
[18]
  residual activity: 98.9%
[19]
  residual activity: 107%
[20]
  residual activity: 100%
[21]
  residual activity: 101%
[22]
  residual activity: 91.8%
[23]
  residual activity: 99%
[24]
  residual activity: 103%
[25]
  residual activity: 104%
[26]
  residual activity: 85%
[27]
  residual activity: 96.1%
[28]
  residual activity: 96.2%
[29]
  residual activity: 101%
[30]
  residual activity: 95.3%
[31]
  residual activity: 101%
[32]
  residual activity: 105%
[33]
  residual activity: 106%
[34]
  residual activity: 94.8%
[35]
  residual activity: 103%
[36]
  residual activity: 94.3%
[37]
  residual activity: 109%
[38]
  residual activity: 110%
[39]
  residual activity: 94.2%
[40]
  residual activity: 104%
[41]
  residual activity: 95.9%

## Nc1ncnc2c1cnn2-c1ccccc1
[1]
  residual activity: 91.9%
[2]
  residual activity: 100%
[3]
  residual activity: 90.2%
[4]
  residual activity: 105%
[6]
  residual activity: 108%
[7]
  residual activity: 91.8%
[8]
  residual activity: 79.5%
[9]
  residual activity: 93.4%
[10]
  residual activity: 103%
[11]
  residual activity: 101%
[42]
  residual activity: 103%
[12]
  residual activity: 93%
[13]
  residual activity: 101%
[14]
  residual activity: 104%
[15]
  residual activity: 103%
[16]
  residual activity: 93.9%
[17]
  residual activity: 99.9%
[18]
  residual activity: 88.2%
[19]
  residual activity: 95.3%
[20]
  residual activity: 89.7%
[21]
  residual activity: 88%
[22]
  residual activity: 99.7%
[23]
  residual activity: 96.1%
[24]
  residual activity: 98.1%
[25]
  residual activity: 98.6%
[26]
  residual activity: 96.3%
[27]
  residual activity: 87.3%
[28]
  residual activity: 79.5%
[29]
  residual activity: 94.1%
[30]
  residual activity: 103%
[31]
  residual activity: 90.9%
[32]
  residual activity: 92.3%
[33]
  residual activity: 98%
[34]
  residual activity: 107%
[35]
  residual activity: 96.8%
[36]
  residual activity: 99.6%
[37]
  residual activity: 105%
[38]
  residual activity: 86.7%
[39]
  residual activity: 90%
[40]
  residual activity: 97.2%
[41]
  residual activity: 91.5%

Reference: the kinase profiling compilation of Christmann-Franck et al. (2016)
